One assay concerns PC3 cells. Put plainly: NAMPT Cell Proliferation Assay (Cell Titer Glo). The class given is cell-based. Particulars: Homo sapiens, PC-3, 120 h, incubated 5 days, cell viability. The method, boiled down:
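PC3 cells (500/well, RPMI with 10% heat-inactivated FBS) were exposed to 10-fold compound dilutions from […] for 5 days at 37 °C, 5% CO2. Viability was read with Cell Titer Glo; IC50 from sigmoidal fit of percent inhibition.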

Assay [1] has as its target T1, NAMPT (Homo sapiens, UniProt P43490). Description: Time-Resolved Fluorescence Resonance Energy Transfer (TR-FRET) Binding Assay of NAMPT. Particulars: 6.8 nM NAMPT, 200 nM probe, equilibrated 3 hours, no substrates. The method, boiled down:
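Compound was mixed with enzyme, probe and antibody and equilibrated 3 h at room temperature. TR-FRET read at Ex 337 nm, Em 520/495 nm. Ratios were normalized to controls and fitted to a four-parameter logistic equation for IC50.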
In general terms: Time-resolved FRET reads energy transfer from a long-lived donor to a nearby acceptor.

Assay [2] deals with T1, NAMPT. Put plainly: TR-FRET Binding Assay of NAMPT with PRPP. The conditions noted are these: 2 nM NAMPT, 2 nM probe, 200 µM PRPP and 2.5 mM ATP, equilibrated 16 hours. The protocol:
Time-Resolved Fluorescence Resonance Energy Transfer (TR-FRET) Binding Assay of NAMPT with PRPP
Compound handling and data processing were identical to the assay in the absence of substrates (above). Final concentrations were 1× assay buffer, 2% DMSO, 2 nM NAMPT, 2 nM probe, 1 nM Tb-anti-His antibody (Invitrogen #PV5895), 200 µM PRPP and 2.5 mM ATP. Reactions were equilibrated for 16 hours prior to measurement to allow for potential enzymatic modification of test compounds.

IC50 data for 25 molecules are collected here from patent US9296723B2, “NAMPT inhibitors” (AbbVie Inc., priority 2012, dated 2016).

T1 sequence (P43490 whole entry): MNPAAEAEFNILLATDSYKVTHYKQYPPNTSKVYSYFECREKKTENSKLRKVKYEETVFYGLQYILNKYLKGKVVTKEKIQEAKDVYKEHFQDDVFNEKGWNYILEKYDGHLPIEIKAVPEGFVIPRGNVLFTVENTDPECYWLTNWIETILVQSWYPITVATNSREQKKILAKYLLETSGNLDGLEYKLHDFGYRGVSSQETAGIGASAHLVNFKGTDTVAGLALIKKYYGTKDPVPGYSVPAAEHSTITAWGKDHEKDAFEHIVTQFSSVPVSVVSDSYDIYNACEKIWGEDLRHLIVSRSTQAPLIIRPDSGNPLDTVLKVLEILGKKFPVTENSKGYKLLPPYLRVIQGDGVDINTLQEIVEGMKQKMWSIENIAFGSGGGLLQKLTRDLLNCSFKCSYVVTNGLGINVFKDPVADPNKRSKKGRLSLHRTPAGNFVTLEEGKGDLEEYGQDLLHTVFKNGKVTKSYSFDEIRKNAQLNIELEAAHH

Broadly, the IC50 is the midpoint of a concentration-inhibition curve. A low value points to greater potency in that assay. For `CCC(C)(C)C(=O)N1CCC(c2ccc(NC(=O)N3CC(c4cccnc4)C3)cc2)CC1` [Example 169, N-{4-[1-(2,2-dimethylbutanoyl)piperidin-4-yl]phenyl}-3-(pyridin-3-yl)azetidine-1-carboxamide], the IC50 in the assay with PC3 cells was 7.98 nM; at NAMPT [1] it was 5.36 nM; on NAMPT [2], 0.304 nM.

Regarding `Cc1ccc(C(=O)N2CC[C@@H](Oc3ccc(NC(=O)N4CC(c5cccnc5)C4)cc3)C2)s1` [Example 323, N-[4-({(3R)-1-[(5-methylthiophen-2-yl)carbonyl]pyrrolidin-3-yl}oxy)phenyl]-3-(pyridin-3-yl)azetidine-1-carboxamide], the values for the IC50 in the assay with PC3 cells, at NAMPT [1] and on NAMPT [2] were 51 nM, 41.4 nM and 0.194 nM, respectively.

Consider `O=C(Nc1ccc(O[C@@H]2CCN(C(=O)C3CCCC3)C2)cc1)N1CC(c2cccnc2)C1` [Example 334, N-(4-{[(3R)-1-(cyclopentylcarbonyl)pyrrolidin-3-yl]oxy}phenyl)-3-(pyridin-3-yl)azetidine-1-carboxamide], for which the results for the IC50 in the assay with PC3 cells, on NAMPT [1] and at NAMPT [2] were 32.4 nM, 94.9 nM and 0.449 nM, respectively.

For the molecule `O=C(CC1C[C@@H]2CC[C@H]1C2)N1CCC(c2ccc(NC(=O)N3CC(c4cccnc4)C3)cc2)C1` (stereo partly drawn) [Example 260, N-(4-{1-[(1S,4R)-bicyclo[2.2.1]hept-2-ylacetyl]pyrrolidin-3-yl}phenyl)-3-(pyridin-3-yl)azetidine-1-carboxamide], the IC50 in the assay with PC3 cells was 94.9 nM; on NAMPT [1], 38.4 nM; at NAMPT [2], 0.302 nM.

For `CCOCCC(=O)N1CC[C@@H](Oc2ccc(NC(=O)N3CC(c4cccnc4)C3)cc2)C1` [Example 314, N-(4-{[(3R)-1-(3-ethoxypropanoyl)pyrrolidin-3-yl]oxy}phenyl)-3-(pyridin-3-yl)azetidine-1-carboxamide], the values for the IC50 with PC3 cells, at NAMPT [1] and on NAMPT [2] were 83.9 nM, 110 nM and 0.178 nM, respectively.

`CC(=O)N1CC(Oc2ccc(NC(=O)N3CC(c4cccnc4)C3)cc2)C1` [Example 137, N-{4-[(1-acetylazetidin-3-yl)oxy]phenyl}-3-(pyridin-3-yl)azetidine-1-carboxamide]: the IC50 with PC3 cells was found to be 51.6 nM; at NAMPT [1] it was 98.8 nM; at NAMPT [2] it was 0.44 nM.

`CCC(C)(C)C(=O)N1CC(Oc2ccc(NC(=O)N3CC(c4cccnc4)C3)cc2)C1` [Example 131, N-(4-{[1-(2,2-dimethylbutanoyl)azetidin-3-yl]oxy}phenyl)-3-(pyridin-3-yl)azetidine-1-carboxamide]: the results for the half-inhibitory concentration (IC50) in the assay on PC3 cells, at NAMPT [1] and on NAMPT [2] were 8.18 nM, 7.72 nM and 0.491 nM, respectively.

With `N#Cc1ccc(NC(=O)N2CC(c3cccnc3)C2)cc1` [Example 14, N-(4-cyanophenyl)-3-(pyridin-3-yl)azetidine-1-carboxamide], the IC50 with PC3 cells amounted to 6680 nM; at NAMPT [1], 879 nM; at NAMPT [2], 0.178 nM.

For `O=C(Nc1ccc(C2CCN(C(=O)C3CC3)C2)cc1)N1CC(c2cccnc2)C1` (stereo not drawn) [Example 73, N-{4-[1-(cyclopropylcarbonyl)pyrrolidin-3-yl]phenyl}-3-(pyridin-3-yl)azetidine-1-carboxamide], the IC50 is 84.5 nM in the assay with PC3 cells, 156 nM on NAMPT [1] and 0.663 nM on NAMPT [2].

For `O=C(Nc1ccc(C2CCN(C(=O)[C@H]3CCCO3)C2)cc1)N1CC(c2cccnc2)C1` (stereo partly drawn) [Example 67, 3-(pyridin-3-yl)-N-(4-{1-[(2R)-tetrahydrofuran-2-ylcarbonyl]pyrrolidin-3-yl}phenyl)azetidine-1-carboxamide], the values for the IC50 in the assay on PC3 cells, on NAMPT [1] and at NAMPT [2] were 78.5 nM, 173 nM and 0.171 nM, respectively.

`CCCC(=O)N1CCC(c2ccc(NC(=O)N3CC(c4cccnc4)C3)cc2)CC1` [Example 172, N-[4-(1-butanoylpiperidin-4-yl)phenyl]-3-(pyridin-3-yl)azetidine-1-carboxamide]: the figures for the IC50 with PC3 cells, at NAMPT [1] and on NAMPT [2] were 34.5 nM, 5.65 nM and 0.206 nM, respectively.

`CCC(C)CN1CC(c2ccc(NC(=O)N3CC(c4cccnc4)C3)cc2)C1` (stereo not drawn) [Example 255, N-{4-[1-(2-methylbutyl)azetidin-3-yl]phenyl}-3-(pyridin-3-yl)azetidine-1-carboxamide]: the IC50 is 734 nM in the assay on PC3 cells, 271 nM at NAMPT [1] and 0.173 nM at NAMPT [2].

Consider `O=C(Nc1ccc(C2CCN(C(=O)C3CCCC3)C2)cc1)N1CC(c2cccnc2)C1` (stereo not drawn) [Example 295, N-{4-[1-(cyclopentylcarbonyl)pyrrolidin-3-yl]phenyl}-3-(pyridin-3-yl)azetidine-1-carboxamide], for which the half-inhibitory concentration (IC50) with PC3 cells is 66.5 nM; at NAMPT [1], 50.7 nM; at NAMPT [2], 0.272 nM.

On to `CC(C)(C)CCN1CC(c2ccc(NC(=O)N3CC(c4cccnc4)C3)cc2)C1` [Example 247, N-{4-[1-(3,3-dimethylbutyl)azetidin-3-yl]phenyl}-3-(pyridin-3-yl)azetidine-1-carboxamide], for which the IC50 came out at 471 nM in the assay with PC3 cells, 871 nM on NAMPT [1] and 0.304 nM on NAMPT [2].

As to `O=C(CN1CCCC1)N1CC[C@@H](Oc2ccc(NC(=O)N3CC(c4cccnc4)C3)cc2)C1` [Example 304, 3-(pyridin-3-yl)-N-(4-{[(3R)-1-(pyrrolidin-1-ylacetyl)pyrrolidin-3-yl]oxy}phenyl)azetidine-1-carboxamide], the IC50 worked out at 262 nM with PC3 cells, 594 nM at NAMPT [1] and 0.343 nM on NAMPT [2].

As to `CC(C)(C)CC(=O)N1CC=C(c2ccc(NC(=O)N3CC(c4cccnc4)C3)cc2)CC1` [Example 17, N-{4-[1-(3,3-dimethylbutanoyl)-1,2,3,6-tetrahydropyridin-4-yl]phenyl}-3-(pyridin-3-yl)azetidine-1-carboxamide], the IC50 is 36.8 nM in the assay with PC3 cells, 16.9 nM on NAMPT [1] and 0.568 nM at NAMPT [2].

Take `CC1(C(=O)N2CCC(c3ccc(NC(=O)N4CC(c5cccnc5)C4)cc3)CC2)CCCCC1` [Example 181, N-(4-{1-[(1-methylcyclohexyl)carbonyl]piperidin-4-yl}phenyl)-3-(pyridin-3-yl)azetidine-1-carboxamide]: the IC50 in the assay with PC3 cells amounted to 24.3 nM; on NAMPT [1], 8.06 nM; on NAMPT [2] it was 0.256 nM.

As to `O=C(Nc1ccc(OC2CCN(C(=O)c3ccsc3)CC2)cc1)N1CC(c2cccnc2)C1` [Example 33, 3-(pyridin-3-yl)-N-(4-{[1-(thiophen-3-ylcarbonyl)piperidin-4-yl]oxy}phenyl)azetidine-1-carboxamide], the results for the IC50 in the assay on PC3 cells, on NAMPT [1] and on NAMPT [2] were 68.7 nM, 56.1 nM and 0.43 nM, respectively.

As for `O=C(CC1CCCCC1)N1CC[C@@H](Oc2ccc(NC(=O)N3CC(c4cccnc4)C3)cc2)C1` [Example 317, N-(4-{[(3R)-1-(cyclohexylacetyl)pyrrolidin-3-yl]oxy}phenyl)-3-(pyridin-3-yl)azetidine-1-carboxamide], the IC50 in the assay on PC3 cells is 55.4 nM; at NAMPT [1], 29.9 nM; on NAMPT [2], 0.207 nM.

On to `O=C(Nc1ccc(C2CCN(C(=O)c3nccs3)C2)cc1)N1CC(c2cccnc2)C1` (stereo not drawn) [Example 267, 3-(pyridin-3-yl)-N-{4-[1-(1,3-thiazol-2-ylcarbonyl)pyrrolidin-3-yl]phenyl}azetidine-1-carboxamide], for which the 50% inhibitory concentration (IC50) in the assay on PC3 cells was determined as 17.8 nM; at NAMPT [1], 22.5 nM; on NAMPT [2] it was 0.297 nM.

With `O=C(Nc1ccc(O[C@@H]2CCN(C(=O)c3ccco3)C2)cc1)N1CC(c2cccnc2)C1` [Example 326, N-(4-{[(3R)-1-(furan-2-ylcarbonyl)pyrrolidin-3-yl]oxy}phenyl)-3-(pyridin-3-yl)azetidine-1-carboxamide], the values for the IC50 in the assay with PC3 cells, at NAMPT [1] and on NAMPT [2] were 16.5 nM, 32.2 nM and 0.294 nM, respectively.

As for `CC(C)(C)CC(=O)N1CCC(c2ccc(NC(=O)N3CC(c4cccnc4)C3)cc2)CC1` [Example 170, N-{4-[1-(3,3-dimethylbutanoyl)piperidin-4-yl]phenyl}-3-(pyridin-3-yl)azetidine-1-carboxamide], the IC50 in the assay with PC3 cells stood at 14.8 nM; on NAMPT [1], 7.07 nM; at NAMPT [2], 0.364 nM.

In the case of `CC(C)(O)C(=O)N1CCC(c2ccc(NC(=O)N3CC(c4cccnc4)C3)cc2)C1` (stereo not drawn) [Example 70, N-{4-[1-(2-hydroxy-2-methylpropanoyl)pyrrolidin-3-yl]phenyl}-3-(pyridin-3-yl)azetidine-1-carboxamide], the results for the IC50 with PC3 cells, on NAMPT [1] and on NAMPT [2] were 73.1 nM, 92.2 nM and 0.421 nM, respectively.

With `O=C(CC1CC1)N1CC(Oc2ccc(NC(=O)N3CC(c4cccnc4)C3)cc2)C1` [Example 114, N-(4-{[1-(cyclopropylacetyl)azetidin-3-yl]oxy}phenyl)-3-(pyridin-3-yl)azetidine-1-carboxamide], the IC50 in the assay with PC3 cells came to 8.11 nM; on NAMPT [1] it was 15.8 nM; at NAMPT [2], 0.189 nM.

Take `CCC(C)CC(=O)N1CCC(c2ccc(NC(=O)N3CC(c4cccnc4)C3)cc2)C1` (stereo not drawn) [Example 259, N-{4-[1-(3-methylpentanoyl)pyrrolidin-3-yl]phenyl}-3-(pyridin-3-yl)azetidine-1-carboxamide]: the figures for the IC50 in the assay on PC3 cells, at NAMPT [1] and at NAMPT [2] were 64.7 nM, 54.5 nM and 0.452 nM, respectively.
